This data set addresses T1, ABCG2 (Homo sapiens, UniProt Q9UNQ0).
T1 sequence (Q9UNQ0 1-655): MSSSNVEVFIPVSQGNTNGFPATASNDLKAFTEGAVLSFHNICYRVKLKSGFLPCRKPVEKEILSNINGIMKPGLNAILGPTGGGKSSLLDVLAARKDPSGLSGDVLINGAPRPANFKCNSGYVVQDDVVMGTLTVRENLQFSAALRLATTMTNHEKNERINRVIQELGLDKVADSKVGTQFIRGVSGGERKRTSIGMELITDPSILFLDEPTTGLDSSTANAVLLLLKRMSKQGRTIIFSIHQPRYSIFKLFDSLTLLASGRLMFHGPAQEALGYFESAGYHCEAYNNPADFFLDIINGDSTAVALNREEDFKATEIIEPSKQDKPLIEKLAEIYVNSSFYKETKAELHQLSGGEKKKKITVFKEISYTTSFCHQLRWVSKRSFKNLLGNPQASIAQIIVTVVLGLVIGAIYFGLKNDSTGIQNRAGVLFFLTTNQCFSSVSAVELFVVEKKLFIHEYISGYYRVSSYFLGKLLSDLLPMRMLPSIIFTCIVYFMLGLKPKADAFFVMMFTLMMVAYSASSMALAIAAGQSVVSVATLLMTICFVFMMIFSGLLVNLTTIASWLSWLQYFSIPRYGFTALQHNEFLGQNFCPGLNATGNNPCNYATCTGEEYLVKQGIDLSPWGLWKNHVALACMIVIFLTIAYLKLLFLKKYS

The text below walks through data of article PMC11284896 (Journal of Translational Internal Medicine, 2024).

For `O=C1c2c(O)ccc(O)c2C(=O)c2c(NCCNCCO)ccc(NCCNCCO)c21` [mitoxantrone], the “radiolabelled substrate efflux and accumulation in ABCG2-overexpressing NCI-H460” value is “the efflux of [^3H]-mitoxantrone from cells overexpressed ABCG2 transporter was considerably diminished in the presence of RN486”.
